Laboratory results reported in patent US20080009418A1, “Selective Inhibitors” (Alchemia LTD., priority 2004, published 2008).

How the values were obtained:
[1] = biological target: T1, Human neuropeptide Y (NPY-Y1) (Homo sapiens, UniProt P25929); assay: Radioligand binding, human neuropeptide Y NPY-Y1 membranes, FlashPlate, [125I]-PYY; details: compound at 10 μM; for A9: inhibition of radioligand binding: [125I]-PYY
T1 construct: purchased Perkin Elmer Biosignal
T1 sequence (P25929 1-384): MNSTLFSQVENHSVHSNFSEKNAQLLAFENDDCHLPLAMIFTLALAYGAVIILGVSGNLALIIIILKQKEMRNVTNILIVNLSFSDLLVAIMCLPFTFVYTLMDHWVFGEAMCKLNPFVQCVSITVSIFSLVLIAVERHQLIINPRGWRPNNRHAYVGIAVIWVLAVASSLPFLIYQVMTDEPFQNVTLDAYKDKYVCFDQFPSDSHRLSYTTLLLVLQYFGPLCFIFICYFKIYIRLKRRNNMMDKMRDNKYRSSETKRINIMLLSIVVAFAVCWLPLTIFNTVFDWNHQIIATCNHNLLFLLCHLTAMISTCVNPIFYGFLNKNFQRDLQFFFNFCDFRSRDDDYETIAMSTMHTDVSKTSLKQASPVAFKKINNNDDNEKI
How it was run: (§1)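 Cloned human receptor membranes were coated onto FlashPlate wells and incubated with radioligand and compound (added from a 0.5 mM DMSO daughter plate) for 1 hour at room temperature in the dark. Scintillation counting gave percent inhibition, with DMSO defining total and reference ligand defining non-specific binding.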

Human neurokinin (NK1) = biological target: T2, Human neurokinin (NK1) (Homo sapiens, UniProt P25103); assay: Radioligand binding, human neurokinin NK1 membranes, filtration, [125I]-Substance P; details: compound at 10 μM; for A8: inhibition of radioligand binding: [125I]-Substance P; for A8 radioligand binding inhibition: human neurokinin NK1 membranes
T2 construct: purchased Perkin Elmer Biosignal
T2 sequence (P25103 whole entry): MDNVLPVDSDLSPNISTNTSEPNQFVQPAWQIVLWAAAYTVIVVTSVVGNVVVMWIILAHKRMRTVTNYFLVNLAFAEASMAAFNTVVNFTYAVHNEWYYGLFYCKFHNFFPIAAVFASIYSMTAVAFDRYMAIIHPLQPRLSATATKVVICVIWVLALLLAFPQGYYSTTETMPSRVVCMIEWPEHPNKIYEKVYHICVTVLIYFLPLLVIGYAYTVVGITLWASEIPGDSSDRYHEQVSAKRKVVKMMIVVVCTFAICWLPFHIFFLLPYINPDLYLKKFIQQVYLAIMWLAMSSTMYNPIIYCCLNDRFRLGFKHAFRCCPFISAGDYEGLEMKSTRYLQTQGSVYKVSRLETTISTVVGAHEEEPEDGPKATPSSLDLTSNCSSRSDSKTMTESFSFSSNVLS
How it was run: (§2)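 Filtration binding on cloned human receptor membranes (1 Unit/well), [125I]-Substance P for NK1 and [3H]-Diprenorphine for KOP, 1 h at room temperature. Filters PEI-presoaked, washed with cold 50 mM Tris-HCl pH 7.4, counted by scintillation; percent inhibition calculated, reference ligand defining non-specific binding.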

Human κ-Opioid (KOP) = biological target: T3, Human κ-Opioid (KOP) (Homo sapiens, UniProt P41145); assay: Radioligand binding, human κ-opioid (KOP) membranes, filtration, [3H]-Diprenorphine; details: compound at 10 μM; for A2: inhibition of radioligand binding: [3H]-Diprenorphine; for A2 radioligand binding inhibition: human κ-opioid (KOP) membranes
T3 construct: purchased Perkin Elmer Biosignal
T3 sequence (P41145 whole entry): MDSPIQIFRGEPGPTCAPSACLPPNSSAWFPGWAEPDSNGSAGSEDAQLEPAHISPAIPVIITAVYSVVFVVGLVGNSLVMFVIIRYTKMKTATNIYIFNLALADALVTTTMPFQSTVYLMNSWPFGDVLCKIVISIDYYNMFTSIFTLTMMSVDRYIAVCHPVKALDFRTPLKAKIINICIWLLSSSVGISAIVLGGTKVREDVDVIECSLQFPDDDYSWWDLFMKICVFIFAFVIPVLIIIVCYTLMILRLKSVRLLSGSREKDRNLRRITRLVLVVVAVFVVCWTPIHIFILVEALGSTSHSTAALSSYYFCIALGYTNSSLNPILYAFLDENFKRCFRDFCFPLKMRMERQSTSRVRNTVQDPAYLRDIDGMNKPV
How it was run: as §2

Mouse urotensin (mUR2) = biological target: T4, Mouse urotensin (mUR2) (Mus musculus, UniProt Q8VIH9); assay: Radioligand binding, mouse urotensin mUR2 membranes, FlashPlate, [125I]-Urotensin II; details: compound at 10 μM; for A11: inhibition of radioligand binding: [125I]-Urotensin II; for A11 radioligand binding inhibition: mouse urotensin mUR2 membranes
T4 construct: purchased Perkin Elmer Biosignal
T4 sequence (Q8VIH9 1-385): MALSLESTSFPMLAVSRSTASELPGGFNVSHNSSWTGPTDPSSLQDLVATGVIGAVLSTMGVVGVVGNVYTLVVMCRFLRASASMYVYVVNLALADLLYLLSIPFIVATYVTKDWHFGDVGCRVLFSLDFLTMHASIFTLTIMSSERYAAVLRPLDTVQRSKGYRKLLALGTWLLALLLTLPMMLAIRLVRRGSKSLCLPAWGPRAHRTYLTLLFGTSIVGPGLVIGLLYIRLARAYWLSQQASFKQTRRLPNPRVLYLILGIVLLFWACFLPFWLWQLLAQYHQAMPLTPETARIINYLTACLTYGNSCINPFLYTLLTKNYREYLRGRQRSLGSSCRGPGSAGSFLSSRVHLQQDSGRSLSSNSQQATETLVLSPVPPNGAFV
How it was run: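 Cloned mouse urotensin (mUR2) receptor membranes from Perkin Elmer Biosignal were immobilized in FlashPlate microplates using a proprietary coating. Each well got 19.5 μl buffer, then 0.5 μl of DMSO, reference ligand, or compound. Adding 5 μl of [125I]-Urotensin II, diluted to 5× final concentration in binding buffer, started binding. Plates were sealed with TopSeal-A and incubated 1 hour at room temperature in the dark. Wells were counted for 30 seconds each on a TopCount after a 60-second delay, and percentage inhibition was calculated.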

Human Melanocortin (MC3) = biological target: T5, Human Melanocortin (MC3) (Homo sapiens, UniProt P41968); assay: Radioligand binding, human melanocortin MC3 membranes, FlashPlate, [125I]-NDP-αMSH; details: compound at 10 μM; for A3: inhibition of radioligand binding: [125I]-NDP-αMSH; for A3 radioligand binding inhibition: human melanocortin MC3 membranes
T5 construct: purchased Perkin Elmer Biosignal
T5 sequence (P41968 whole entry): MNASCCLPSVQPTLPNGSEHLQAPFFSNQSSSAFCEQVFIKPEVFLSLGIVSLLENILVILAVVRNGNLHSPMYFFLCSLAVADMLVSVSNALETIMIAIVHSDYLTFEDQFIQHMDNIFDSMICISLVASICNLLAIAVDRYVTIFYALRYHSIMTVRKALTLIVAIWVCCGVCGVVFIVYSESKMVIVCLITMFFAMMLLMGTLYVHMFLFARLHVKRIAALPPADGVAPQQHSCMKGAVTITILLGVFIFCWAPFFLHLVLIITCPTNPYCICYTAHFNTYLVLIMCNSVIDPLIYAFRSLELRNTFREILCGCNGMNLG
How it was run: as §1

Human Melanocortin (MC4) = biological target: T6, Human Melanocortin (MC4) (Homo sapiens, UniProt P32245); assay: Radioligand binding, human melanocortin MC4 membranes, FlashPlate, [125I]-NDP-αMSH; details: compound at 10 μM; for A4: inhibition of radioligand binding: [125I]-NDP-αMSH; for A4 radioligand binding inhibition: human melanocortin MC4 membranes
T6 construct: purchased Perkin Elmer Biosignal
T6 sequence (P32245 whole entry): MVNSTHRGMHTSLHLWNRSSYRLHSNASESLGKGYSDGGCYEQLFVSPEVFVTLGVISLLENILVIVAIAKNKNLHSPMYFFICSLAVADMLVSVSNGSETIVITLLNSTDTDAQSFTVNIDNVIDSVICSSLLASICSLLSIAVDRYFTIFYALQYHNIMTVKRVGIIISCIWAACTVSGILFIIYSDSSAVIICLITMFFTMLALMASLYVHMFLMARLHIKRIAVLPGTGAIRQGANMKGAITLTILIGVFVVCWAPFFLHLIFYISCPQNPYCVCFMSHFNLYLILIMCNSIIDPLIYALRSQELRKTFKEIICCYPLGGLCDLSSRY
How it was run: as §1

Human μ-opioid (MOP) = biological target: T7, Human μ-opioid (MOP) (Homo sapiens, UniProt P35372); assay: Radioligand binding, human μ-opioid (MOP) membranes, FlashPlate, [3H]-Naloxone; details: compound at 10 μM; for A7: inhibition of radioligand binding: [3H]-Naloxone; for A7 radioligand binding inhibition: human μ-opioid (MOP) membranes
T7 construct: purchased Perkin Elmer Biosignal
T7 sequence (P35372 whole entry): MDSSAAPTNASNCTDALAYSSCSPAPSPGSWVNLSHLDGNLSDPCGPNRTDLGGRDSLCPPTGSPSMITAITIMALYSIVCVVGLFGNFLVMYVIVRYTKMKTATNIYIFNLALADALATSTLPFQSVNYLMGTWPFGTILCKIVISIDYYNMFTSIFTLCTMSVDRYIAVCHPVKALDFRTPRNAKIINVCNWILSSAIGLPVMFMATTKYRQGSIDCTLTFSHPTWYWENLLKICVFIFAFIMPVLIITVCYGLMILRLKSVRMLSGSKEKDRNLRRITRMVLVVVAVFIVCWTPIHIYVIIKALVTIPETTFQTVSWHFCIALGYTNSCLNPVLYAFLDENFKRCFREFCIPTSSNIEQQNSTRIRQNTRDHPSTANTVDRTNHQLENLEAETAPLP
How it was run: as §1

[2] = biological target: T8, Human melanin-concentrating hormone (MCH1) (Homo sapiens, UniProt Q99705); assay: Radioligand binding, human melanin-concentrating hormone MCH1 membranes, FlashPlate, [125I]-S36057; details: compound at 10 μM; for A6 radioligand binding inhibition: human MCH1 membranes
T8 construct: purchased Perkin Elmer Biosignal
T8 sequence (Q99705 whole entry): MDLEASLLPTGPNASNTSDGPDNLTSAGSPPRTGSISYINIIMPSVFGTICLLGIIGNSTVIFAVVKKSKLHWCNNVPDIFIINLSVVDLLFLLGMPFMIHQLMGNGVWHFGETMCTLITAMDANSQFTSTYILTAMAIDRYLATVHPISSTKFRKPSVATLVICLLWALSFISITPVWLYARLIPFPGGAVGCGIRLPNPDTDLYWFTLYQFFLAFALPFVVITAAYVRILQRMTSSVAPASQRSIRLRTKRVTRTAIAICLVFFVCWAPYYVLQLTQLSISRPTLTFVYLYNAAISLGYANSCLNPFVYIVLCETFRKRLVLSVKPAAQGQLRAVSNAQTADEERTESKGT
How it was run: as §1

Human δ-opioid (DOP) = biological target: T9, Human δ-opioid (DOP) (Homo sapiens, UniProt P41143); assay: Radioligand binding, human δ-opioid (DOP) membranes, FlashPlate, [3H]-Bremazocine; details: compound at 10 μM; for A1: inhibition of radioligand binding: [3H]-Bremazocine; for A1 radioligand binding inhibition: human δ-opioid (DOP) membranes
T9 construct: purchased Perkin Elmer Biosignal
T9 sequence (P41143 whole entry): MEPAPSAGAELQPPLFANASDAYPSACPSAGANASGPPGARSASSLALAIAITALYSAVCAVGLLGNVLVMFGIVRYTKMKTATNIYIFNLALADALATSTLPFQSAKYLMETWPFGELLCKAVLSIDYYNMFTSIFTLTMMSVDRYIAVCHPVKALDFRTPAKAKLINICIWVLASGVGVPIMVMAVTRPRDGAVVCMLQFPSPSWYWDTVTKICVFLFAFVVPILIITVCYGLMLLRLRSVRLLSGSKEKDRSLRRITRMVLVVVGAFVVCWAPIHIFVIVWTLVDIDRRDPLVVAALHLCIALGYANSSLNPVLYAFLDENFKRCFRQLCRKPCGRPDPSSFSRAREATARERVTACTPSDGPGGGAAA
How it was run: as §1

Human opioid (ORL1) = biological target: T10, Human opioid (ORL1) (Homo sapiens, UniProt P41146); assay: Radioligand binding, human opioid ORL1 membranes, FlashPlate, [125I]-Nociceptin; details: compound at 10 μM; for A10: inhibition of radioligand binding: [125I]-Nociceptin
T10 construct: purchased Perkin Elmer Biosignal
T10 sequence (P41146 whole entry): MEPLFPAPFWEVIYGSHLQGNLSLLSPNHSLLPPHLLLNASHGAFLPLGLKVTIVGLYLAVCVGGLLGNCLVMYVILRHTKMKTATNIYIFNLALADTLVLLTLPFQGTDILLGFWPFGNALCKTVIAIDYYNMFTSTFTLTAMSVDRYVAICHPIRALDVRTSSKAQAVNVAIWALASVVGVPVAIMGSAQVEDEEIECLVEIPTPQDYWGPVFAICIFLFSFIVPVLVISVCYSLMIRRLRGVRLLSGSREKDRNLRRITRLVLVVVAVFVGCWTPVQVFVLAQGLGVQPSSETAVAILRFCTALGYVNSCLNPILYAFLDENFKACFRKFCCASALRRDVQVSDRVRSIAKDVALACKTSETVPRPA
How it was run: as §1

Human melanocortin (MC5) = biological target: T11, Human melanocortin (MC5) (Homo sapiens, UniProt P33032); assay: Radioligand binding, human melanocortin MC5 membranes, FlashPlate, [125I]-NDP-αMSH; details: compound at 10 μM; for A5: inhibition of radioligand binding: [125I]-NDP-αMSH; for A5 radioligand binding inhibition: human melanocortin MC5 membranes
T11 construct: purchased Perkin Elmer Biosignal
T11 sequence (P33032 whole entry): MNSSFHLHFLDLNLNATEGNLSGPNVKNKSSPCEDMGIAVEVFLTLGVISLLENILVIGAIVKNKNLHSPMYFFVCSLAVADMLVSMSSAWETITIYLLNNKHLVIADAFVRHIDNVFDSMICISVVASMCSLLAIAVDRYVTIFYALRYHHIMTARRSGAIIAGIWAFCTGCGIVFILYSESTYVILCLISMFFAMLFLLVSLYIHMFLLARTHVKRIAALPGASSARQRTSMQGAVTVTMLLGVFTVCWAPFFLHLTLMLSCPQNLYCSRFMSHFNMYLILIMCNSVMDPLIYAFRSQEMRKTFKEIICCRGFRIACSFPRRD
How it was run: as §1

Row | SMILES | A9: inhibition of radioligand binding ([1]; FlashPlate) | A8: inhibition of radioligand binding (Human neurokinin (NK1); filtration) | A2: inhibition of radioligand binding (Human κ-Opioid (KOP); filtration) | A11: inhibition of radioligand binding (Mouse urotensin (mUR2); FlashPlate) | A3: inhibition of radioligand binding (Human Melanocortin (MC3); FlashPlate) | A4: inhibition of radioligand binding (Human Melanocortin (MC4); FlashPlate) | A7: inhibition of radioligand binding (Human μ-opioid (MOP); FlashPlate) | A6: inhibition of radioligand binding ([2]; [125I]-S36057, FlashPlate) | A1: inhibition of radioligand binding (Human δ-opioid (DOP); FlashPlate) | A10: inhibition of radioligand binding (Human opioid (ORL1); FlashPlate) | A5: inhibition of radioligand binding (Human melanocortin (MC5); FlashPlate) | A9 radioligand binding inhibition ([1]; human NPY-Y1 membranes) | A8 radioligand binding inhibition (Human neurokinin (NK1)) | A2 radioligand binding inhibition (Human κ-Opioid (KOP)) | A11 radioligand binding inhibition (Mouse urotensin (mUR2)) | A3 radioligand binding inhibition (Human Melanocortin (MC3)) | A4 radioligand binding inhibition (Human Melanocortin (MC4)) | A7 radioligand binding inhibition (Human μ-opioid (MOP)) | A6 radioligand binding inhibition [2] | A1 radioligand binding inhibition (Human δ-opioid (DOP)) | further results
1 | CSC1OC(COCc2ccccc2)C(O)C(OCc2ccccc2)C1NC(=O)CCNC(=N)N (stereo not shown) [compound 251] | − (“−” indicates less than 50% inhibition at 10 μM) | + (“+” indicates greater than 50% inhibition at 10 μM) | − (“−” indicates less than 50% inhibition at 10 μM) | − (“−” indicates less than 50% inhibition at 10 μM) | − (“−” indicates less than 50% inhibition at 10 μM) | − (“−” indicates less than 50% inhibition at 10 μM) | − (“−” indicates less than 50% inhibition at 10 μM) | − (“−” indicates less than 50% inhibition at 10 μM) | − (“−” indicates less than 50% inhibition at 10 μM) | − (“−” indicates less than 50% inhibition at 10 μM) | − (“−” indicates less than 50% inhibition at 10 μM) | – | – | – | – | – | – | – | – | – | –
2 | COCC1OC(OCc2ccc3ccccc3c2)C(NC(=O)CN)C(OCc2ccc(Cl)cc2)C1O (stereo not shown) [compound 235] | − (“−” indicates less than 50% inhibition at 10 μM) | + (“+” indicates greater than 50% inhibition at 10 μM) | − (“−” indicates less than 50% inhibition at 10 μM) | − (“−” indicates less than 50% inhibition at 10 μM) | − (“−” indicates less than 50% inhibition at 10 μM) | − (“−” indicates less than 50% inhibition at 10 μM) | − (“−” indicates less than 50% inhibition at 10 μM) | − (“−” indicates less than 50% inhibition at 10 μM) | + (“+” indicates greater than 50% inhibition at 10 μM) | − (“−” indicates less than 50% inhibition at 10 μM) | − (“−” indicates less than 50% inhibition at 10 μM) | – | – | – | – | – | – | – | – | – | –
3 | CO[C@H]1[C@H](O)[C@@H](COCc2ccc(-c3ccccc3)cc2)OC(OCc2ccc3ccccc3c2)[C@@H]1NC(=O)CNC(=N)N (stereo partly shown) [compound 66] | – | – | – | – | – | – | – | – | – | – | – | − (“−” indicates less than 50% inhibition at 10 μM) | + (“+” indicates greater than 50% inhibition at 10 μM) | − (“−” indicates less than 50% inhibition at 10 μM) | − (“−” indicates less than 50% inhibition at 10 μM) | + (“+” indicates greater than 50% inhibition at 10 μM) | + (“+” indicates greater than 50% inhibition at 10 μM) | + (“+” indicates greater than 50% inhibition at 10 μM) | + (“+” indicates greater than 50% inhibition at 10 μM) | − (“−” indicates less than 50% inhibition at 10 μM) | A10 radioligand binding inhibition (Human opioid (ORL1); human ORL1 membranes): − (“−” indicates less than 50% inhibition at 10 μM); A5 radioligand binding inhibition (Human melanocortin (MC5)): + (“+” indicates greater than 50% inhibition at 10 μM)
4 | COC[C@H]1OC(OCc2ccc(Cl)cc2)[C@H](NC(=O)CCNC(=N)N)[C@@H](OCc2ccc3ccccc3c2)[C@@H]1O (stereo partly shown) [compound 32] | – | – | – | – | – | – | – | – | – | – | – | − (“−” indicates less than 50% inhibition at 10 μM) | + (“+” indicates greater than 50% inhibition at 10 μM) | − (“−” indicates less than 50% inhibition at 10 μM) | − (“−” indicates less than 50% inhibition at 10 μM) | − (“−” indicates less than 50% inhibition at 10 μM) | − (“−” indicates less than 50% inhibition at 10 μM) | − (“−” indicates less than 50% inhibition at 10 μM) | − (“−” indicates less than 50% inhibition at 10 μM) | + (“+” indicates greater than 50% inhibition at 10 μM) | A10 radioligand binding inhibition (Human opioid (ORL1); human ORL1 membranes): − (“−” indicates less than 50% inhibition at 10 μM); A5 radioligand binding inhibition (Human melanocortin (MC5)): + (“+” indicates greater than 50% inhibition at 10 μM)
5 | NCCC(=O)NC1C(OCc2ccc(Cl)cc2)OC(COCc2ccc(Cl)cc2)C(O)C1OCc1ccc(Cl)cc1 (single isomer, unassigned) [compound 475] | – | – | – | – | – | – | – | – | – | – | – | – | – | – | – | – | – | – | – | – | A9: inhibition of radioligand binding ([1]; human NPY-Y1 membranes): − (“−” indicates less than 50% inhibition at 10 μM); A8: inhibition of radioligand binding (Human neurokinin (NK1); human NK1 membranes): + (“+” indicates greater than 50% inhibition at 10 μM); A2: inhibition of radioligand binding (Human κ-Opioid (KOP); human KOP membranes): − (“−” indicates less than 50% inhibition at 10 μM); A11: inhibition of radioligand binding (Mouse urotensin (mUR2); mouse mUR2 membranes): − (“−” indicates less than 50% inhibition at 10 μM); A3: inhibition of radioligand binding (Human Melanocortin (MC3); human MC3 membranes): − (“−” indicates less than 50% inhibition at 10 μM); A4: inhibition of radioligand binding (Human Melanocortin (MC4); human MC4 membranes): + (“+” indicates greater than 50% inhibition at 10 μM); A7: inhibition of radioligand binding (Human μ-opioid (MOP); human MOP membranes): − (“−” indicates less than 50% inhibition at 10 μM); A6: inhibition of radioligand binding ([2]; [125I]-S36057, human MCH1 membranes): − (“−” indicates less than 50% inhibition at 10 μM); A1: inhibition of radioligand binding (Human δ-opioid (DOP); human DOP membranes): − (“−” indicates less than 50% inhibition at 10 μM); A10: inhibition of radioligand binding (Human opioid (ORL1); human ORL1 membranes): − (“−” indicates less than 50% inhibition at 10 μM); A5: inhibition of radioligand binding (Human melanocortin (MC5); human MC5 membranes): + (“+” indicates greater than 50% inhibition at 10 μM)
